The source of these data is ChEMBL document CHEMBL3137667, “[Drug-induced liver injury; fourteenth updated edition of the bibliographic database of liver injuries and related drugs]” (Gastroenterol Clin Biol, 2004).

The conditions of data set [1]: human, serum.
Data set [2] can be described thus: Highest frequency of moderate liver toxicity observed during clinical trials, expressed as a percentage. [column '% BIOL' in source]. Particulars: human.
The conditions of data set [3]: human.
Data set [4] in a line: Highest frequency of acute liver toxicity observed during clinical trials, expressed as a percentage. [column '% AIGUE' in source]. Particulars: human.
The conditions of data set [5]: human. This is another data set of the same source.
The conditions of data set [6]: human. This is another data set of the same source.
A short description of data set [7]: Times to onset, minimal and maximal, observed in the indexed observations. [column 'DELAI' in source]. The conditions noted are these: human.
The conditions of data set [8]: human. The source holds these as a separate data set.
The conditions of data set [9]: human. The source holds these as a separate data set.
The conditions of data set [10]: human. This is another data set of the same source.
The conditions of data set [11]: human. This is another data set of the same source.
For data set [12] the following is noted: human, serum, 4383 h.
For data set [13] the following is noted: human, serum. This is another data set of the same source.
The conditions of data set [14]: human. The source holds these as a separate data set.
The conditions of data set [15]: human. This is another data set of the same source.
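Throughout, for Hepatotoxicity (association with vascular disease): count of indexed literature references reporting vascular liver injury in humans, e.g. peliosis hepatitis, hepatic veno-occlusive disease or Budd-Chiari syndrome.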
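Throughout, for Hepatotoxicity (benign tumour): value is a count of indexed literature references citing a benign tumour confirmed by histopathology.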
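Throughout, for Hepatotoxicity (choleostasis): human cholestatic liver injury, shown by histopathology or by peak ALT or AST elevation over alkaline phosphatase ratio below 2, value counts indexed literature reports.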
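Throughout, for Hepatotoxicity (chronic liver disease): chronic liver injury confirmed by histopathology or persistently raised serum aminotransferase activity beyond 6 months, value given as the count of indexed literature references.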
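Throughout, for Hepatotoxicity (cirrhosis): value is a count of indexed literature references reporting cirrhosis confirmed by histopathology.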
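Throughout, for Hepatotoxicity (cytolytic): human cytolytic liver injury, shown by histopathology or by a ratio above 5 of peak ALT or AST elevation to alkaline phosphatase elevation, value counts indexed references.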
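Throughout, for Hepatotoxicity (granulomatous hepatitis): value is a count of indexed literature references reporting granulomatous liver disease confirmed by histopathology.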
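Throughout, for Hepatotoxicity (malignant tumour): malignant tumour confirmed by histopathology, value gives the count of indexed literature references reporting it.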
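Throughout, for Hepatotoxicity (severe hepatitis): human clinical data: severe hepatitis, meaning potentially life-threatening liver failure or clinically observed cases, the value counts how many indexed literature references report it.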
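Throughout, for Hepatotoxicity (steatosis): steatosis confirmed by histopathology, value is the count of indexed references.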

For the molecule `OC[C@H]1O[C@@H](n2cnc3c2NC=NC[C@H]3O)C[C@@H]1O` [PENTOSTATIN], the figures for the “Hepatotoxicity (acute)” value in [1] and in [4] were 1 and 0%, respectively. Besides, the “Hepatotoxicity (moderate)” value in data set [2] turned out to be 81.3%; in data set [13], 16. Moreover, the “Hepatotoxicity (malignant tumour)” value in data set [3] was 0. The “Hepatotoxicity (severe hepatitis)” value in data set [5] is recorded as 2. Further, the “Hepatotoxicity (steatosis)” value in data set [6] is given as 1. Moreover, in data set [7], the “Hepatotoxicity (time to onset)” value is listed as 1 day - 2 months. Also, in data set [8], the “Hepatotoxicity (choleostasis)” value is 0. Besides, the “Hepatotoxicity (cirrhosis)” value in data set [9] came to 0. Moreover, the “Hepatotoxicity (granulomatous hepatitis)” value in data set [10] came to 0. Further, the “Hepatotoxicity (benign tumour)” value in data set [11] stood at 0. Moreover, in [12], the “Hepatotoxicity (chronic liver disease)” value turned out to be 0. In addition, the “Hepatotoxicity (cytolytic)” value in data set [14] was 1. Besides, the “Hepatotoxicity (association with vascular disease)” value in data set [15] is given as 0.

Take `CC(=O)CCCCn1c(=O)c2c(ncn2C)n(C)c1=O` [PENTOXIFYLLINE]: the “Hepatotoxicity (acute)” value in [1] was found to be 2; in data set [4] it was 0%. Besides, the “Hepatotoxicity (moderate)” value in [2] was 0%; in data set [13], 0. The “Hepatotoxicity (malignant tumour)” value in data set [3] turned out to be 0. Moreover, the “Hepatotoxicity (severe hepatitis)” value in data set [5] is 0. In data set [6], the “Hepatotoxicity (steatosis)” value amounted to 0. In [7], the “Hepatotoxicity (time to onset)” value is on record as 3 weeks. Also, the “Hepatotoxicity (choleostasis)” value in data set [8] is reported as 2. Further, the “Hepatotoxicity (cirrhosis)” value in data set [9] turned out to be 0. Further, in [10], the “Hepatotoxicity (granulomatous hepatitis)” value was 0. Further, the “Hepatotoxicity (benign tumour)” value in data set [11] was determined as 0. In addition, in [12], the “Hepatotoxicity (chronic liver disease)” value is on record as 0. The “Hepatotoxicity (cytolytic)” value in [14] was 0. For the same molecule, the “Hepatotoxicity (association with vascular disease)” value in data set [15] came to 0.

Consider `CCC[C@H](N[C@@H](C)C(=O)N1[C@H](C(=O)O)C[C@@H]2CCCC[C@@H]21)C(=O)OCC` [PERINDOPRIL], for which the “Hepatotoxicity (acute)” value is 1 in [1] and 0% in [4]. Besides, the figures for the “Hepatotoxicity (moderate)” value in data set [2] and in data set [13] were 12.2% and 1, respectively. The “Hepatotoxicity (malignant tumour)” value in [3] came out at 0. For the same molecule, in data set [5], the “Hepatotoxicity (severe hepatitis)” value is 0. Further, the “Hepatotoxicity (steatosis)” value in data set [6] worked out at 0. Further, in [7], the “Hepatotoxicity (time to onset)” value was determined as 3 weeks. For the same molecule, the “Hepatotoxicity (choleostasis)” value in data set [8] is listed as 0. The “Hepatotoxicity (cirrhosis)” value in data set [9] is given as 0. Further, the “Hepatotoxicity (granulomatous hepatitis)” value in data set [10] is 0. Also, the “Hepatotoxicity (benign tumour)” value in data set [11] is recorded as 0. In addition, the “Hepatotoxicity (chronic liver disease)” value in data set [12] was 0. For the same molecule, the “Hepatotoxicity (cytolytic)” value in data set [14] is 1. Further, in [15], the “Hepatotoxicity (association with vascular disease)” value is recorded as 0.

In the case of `OCCN1CCN(CCCN2c3ccccc3Sc3ccc(Cl)cc32)CC1` [PERPHENAZINE], the “Hepatotoxicity (acute)” value in [1] was determined as 5; in data set [4], 0.3%. Further, the results for the “Hepatotoxicity (moderate)” value in data set [2] and in data set [13] were 23.4% and 2, respectively. For the same molecule, the “Hepatotoxicity (malignant tumour)” value in data set [3] is on record as 0. For the same molecule, the “Hepatotoxicity (severe hepatitis)” value in data set [5] amounted to 0. Besides, the “Hepatotoxicity (steatosis)” value in data set [6] stood at 0. Besides, the “Hepatotoxicity (time to onset)” value in data set [7] stood at 2 months. In addition, the “Hepatotoxicity (choleostasis)” value in [8] turned out to be 4. For the same molecule, in [9], the “Hepatotoxicity (cirrhosis)” value is 0. For the same molecule, the “Hepatotoxicity (granulomatous hepatitis)” value in [10] came to 0. Further, the “Hepatotoxicity (benign tumour)” value in [11] is recorded as 0. In data set [12], the “Hepatotoxicity (chronic liver disease)” value was 0. Moreover, the “Hepatotoxicity (cytolytic)” value in [14] is listed as 1. In data set [15], the “Hepatotoxicity (association with vascular disease)” value came to 0.

As to `[H]/N=C(/N)N/C(=N/[H])NCCc1ccccc1` [PHENFORMIN], the “Hepatotoxicity (acute)” value is 1 in data set [1] and 0% in [4]. Also, the “Hepatotoxicity (moderate)” value in data set [2] came out at 0%; in [13], 0. The “Hepatotoxicity (malignant tumour)” value in data set [3] stood at 0. Besides, in data set [5], the “Hepatotoxicity (severe hepatitis)” value is reported as 0. Besides, the “Hepatotoxicity (steatosis)” value in data set [6] stood at 0. Besides, the “Hepatotoxicity (time to onset)” value in [7] is on record as 1 week. The “Hepatotoxicity (choleostasis)” value in data set [8] is on record as 0. Besides, the “Hepatotoxicity (cirrhosis)” value in data set [9] is reported as 0. In addition, the “Hepatotoxicity (granulomatous hepatitis)” value in data set [10] stood at 0. The “Hepatotoxicity (benign tumour)” value in data set [11] was determined as 0. Further, the “Hepatotoxicity (chronic liver disease)” value in data set [12] is listed as 0. In addition, the “Hepatotoxicity (cytolytic)” value in data set [14] was 0. In addition, the “Hepatotoxicity (association with vascular disease)” value in data set [15] stood at 0.

For `CC(COc1ccccc1)NN` (stereo not given) [PHENOXYPROPAZINE], the “Hepatotoxicity (acute)” value was determined as 3 in data set [1] and 0% in [4]. Also, the results for the “Hepatotoxicity (moderate)” value in data set [2] and in data set [13] were 0% and 0, respectively. The “Hepatotoxicity (malignant tumour)” value in data set [3] came to 0. Further, the “Hepatotoxicity (severe hepatitis)” value in [5] worked out at 3. Also, in [6], the “Hepatotoxicity (steatosis)” value was determined as 0. The “Hepatotoxicity (time to onset)” value in [7] is reported as 1.5 months - 4 months. The “Hepatotoxicity (choleostasis)” value in [8] was found to be 0. Moreover, the “Hepatotoxicity (cirrhosis)” value in data set [9] is 0. Moreover, the “Hepatotoxicity (granulomatous hepatitis)” value in data set [10] was found to be 0. Further, the “Hepatotoxicity (benign tumour)” value in [11] turned out to be 0. The “Hepatotoxicity (chronic liver disease)” value in data set [12] is reported as 0. Further, the “Hepatotoxicity (cytolytic)” value in [14] is on record as 3. Moreover, in data set [15], the “Hepatotoxicity (association with vascular disease)” value amounted to 0.

Consider `O=c1[nH]c2ccccc2n1C1CCN(CCCC(c2ccc(F)cc2)c2ccc(F)cc2)CC1` [PIMOZIDE], for which the “Hepatotoxicity (acute)” value came to 0 in [1] and 0% in data set [4]. The “Hepatotoxicity (moderate)” value stood at 0% in [2] and 2 in [13]. In addition, the “Hepatotoxicity (malignant tumour)” value in data set [3] was 0. For the same molecule, the “Hepatotoxicity (severe hepatitis)” value in [5] turned out to be 0. Moreover, the “Hepatotoxicity (steatosis)” value in data set [6] amounted to 0. The “Hepatotoxicity (time to onset)” value in [7] is on record as 3 days. In addition, in data set [8], the “Hepatotoxicity (choleostasis)” value is listed as 0. The “Hepatotoxicity (cirrhosis)” value in data set [9] amounted to 0. Besides, the “Hepatotoxicity (granulomatous hepatitis)” value in data set [10] was 0. Besides, the “Hepatotoxicity (benign tumour)” value in data set [11] is 0. In addition, the “Hepatotoxicity (chronic liver disease)” value in data set [12] turned out to be 0. For the same molecule, in data set [14], the “Hepatotoxicity (cytolytic)” value was determined as 0. In addition, the “Hepatotoxicity (association with vascular disease)” value in data set [15] is 0.

In the case of `O=C(CCBr)N1CCN(C(=O)CCBr)CC1` [PIPOBROMAN], the “Hepatotoxicity (acute)” value is recorded as 1 in [1] and 0% in data set [4]. Besides, the “Hepatotoxicity (moderate)” value was determined as 0% in data set [2] and 0 in data set [13]. Further, the “Hepatotoxicity (malignant tumour)” value in data set [3] was determined as 0. Also, the “Hepatotoxicity (severe hepatitis)” value in data set [5] is on record as 0. For the same molecule, the “Hepatotoxicity (steatosis)” value in data set [6] was 0. In data set [7], the “Hepatotoxicity (time to onset)” value came to 2 months. The “Hepatotoxicity (choleostasis)” value in data set [8] worked out at 0. Further, the “Hepatotoxicity (cirrhosis)” value in [9] amounted to 0. In addition, in data set [10], the “Hepatotoxicity (granulomatous hepatitis)” value turned out to be 0. For the same molecule, the “Hepatotoxicity (benign tumour)” value in data set [11] turned out to be 0. Also, in data set [12], the “Hepatotoxicity (chronic liver disease)” value is 0. The “Hepatotoxicity (cytolytic)” value in data set [14] is reported as 1. Moreover, the “Hepatotoxicity (association with vascular disease)” value in data set [15] was found to be 0.

`NS(=O)(=O)c1cc(C(=O)O)cc(N2CCCC2)c1Oc1ccccc1` [PIRETANIDE]: the “Hepatotoxicity (acute)” value in data set [1] was 1; in data set [4] it was 0%. Further, the “Hepatotoxicity (moderate)” value in [2] is given as 0%; in data set [13], 0. Further, in data set [3], the “Hepatotoxicity (malignant tumour)” value is recorded as 0. Also, the “Hepatotoxicity (severe hepatitis)” value in data set [5] is 0. Besides, the “Hepatotoxicity (steatosis)” value in [6] was 0. For the same molecule, the “Hepatotoxicity (time to onset)” value in data set [7] amounted to 3 weeks. The “Hepatotoxicity (choleostasis)” value in data set [8] was determined as 0. Further, in [9], the “Hepatotoxicity (cirrhosis)” value came out at 0. Moreover, in [10], the “Hepatotoxicity (granulomatous hepatitis)” value is recorded as 0. The “Hepatotoxicity (benign tumour)” value in data set [11] is reported as 0. For the same molecule, the “Hepatotoxicity (chronic liver disease)” value in data set [12] is 0. For the same molecule, the “Hepatotoxicity (cytolytic)” value in [14] is on record as 1. For the same molecule, the “Hepatotoxicity (association with vascular disease)” value in data set [15] worked out at 0.

`c1cnc(N2CCN(Cc3ccc4c(c3)OCO4)CC2)nc1` [PIRIBEDIL]: the “Hepatotoxicity (acute)” value was 0 in data set [1] and 0% in data set [4]. Further, the “Hepatotoxicity (moderate)” value in data set [2] came to 10%; in [13] it was 2. The “Hepatotoxicity (malignant tumour)” value in data set [3] worked out at 0. For the same molecule, the “Hepatotoxicity (severe hepatitis)” value in [5] was 0. Besides, the “Hepatotoxicity (steatosis)” value in [6] is listed as 0. Further, the “Hepatotoxicity (time to onset)” value in data set [7] is recorded as 12 days - 2.5 months. Moreover, in data set [8], the “Hepatotoxicity (choleostasis)” value came to 0. In [9], the “Hepatotoxicity (cirrhosis)” value is recorded as 0. In data set [10], the “Hepatotoxicity (granulomatous hepatitis)” value worked out at 0. For the same molecule, in data set [11], the “Hepatotoxicity (benign tumour)” value was determined as 0. In addition, the “Hepatotoxicity (chronic liver disease)” value in data set [12] came out at 0. Further, in [14], the “Hepatotoxicity (cytolytic)” value was 0. Moreover, the “Hepatotoxicity (association with vascular disease)” value in data set [15] came to 0.

Take `CN1CCC(=C2c3ccccc3CCc3sccc32)CC1` [PIZOTYLINE]: the results for the “Hepatotoxicity (acute)” value in data set [1] and in data set [4] were 1 and 0%, respectively. Moreover, the “Hepatotoxicity (moderate)” value amounted to 0% in [2] and 0 in data set [13]. Moreover, the “Hepatotoxicity (malignant tumour)” value in data set [3] is 0. Further, the “Hepatotoxicity (severe hepatitis)” value in data set [5] stood at 0. Also, the “Hepatotoxicity (steatosis)” value in data set [6] was found to be 0. Also, the “Hepatotoxicity (time to onset)” value in data set [7] turned out to be 12 days. Also, the “Hepatotoxicity (choleostasis)” value in [8] was determined as 1. Further, the “Hepatotoxicity (cirrhosis)” value in data set [9] was 0. In addition, in data set [10], the “Hepatotoxicity (granulomatous hepatitis)” value came out at 0. The “Hepatotoxicity (benign tumour)” value in [11] is 0. Also, the “Hepatotoxicity (chronic liver disease)” value in data set [12] was 0. Besides, in [14], the “Hepatotoxicity (cytolytic)” value is on record as 0. In data set [15], the “Hepatotoxicity (association with vascular disease)” value amounted to 0.
